Here are results for 1 molecule from patent publication US20260242390A1, “TOTAL SYNTHESES OF PORTIMINE A AND ANALOGUES THEREOF AS SMALL MOLECULE MODULATORS OF NMD3” (priority 2023, published 2026).

In one test the test system is Bcl2. Nature of the test: Bcl2 protein level in Jurkat cells. As to conditions: 6/12 hrs. It counts as cell-based, human. As to the method: FIG. 7. Portimine A targets NMD3 and prevents polysome formation. […] (A) Immunoblot showing reduced NMD3 levels in shNMD3 Jurkat and HeLa cells. […] Jurkat cells were treated with 12.5 nM of PA for 12 or 24 hours. Jurkat and HeLa cells were treated with 5 nM or 150 nM of PA for 24 hours. Data represents mean±SD of biologically replicated experiments (n=3). […] Cell lysates were fractionated by sucrose gradient (5-50%) and each fraction were analyzed by western blot. eIF6 levels increase in 60S subunit fraction and decrease in ribosome-free fractions after PA treatment. RPS6, a 40S and polysome subunits marker, is decreased in polysome fractions after PA treatment. Results are representative of three independent experiments. […] Relative protein levels in each fraction were normalized to the peak fraction of the indicated protein from the DMSO cells and plotted. Data represents mean±SD of biologically replicated experiments (n=3). Statistical analysis was performed using multiple unpaired Student t-test. * p≤0.05; ** p≤0.01; *** p≤0.005; **** p≤0.0001. Treatment condition: Jurkat (5 M per condition); Incubate cells (1 M/mL) with inhibitors for 6 hr, 12 hr and 24 hr, respectively.
• 1) Portimine A and its functional analogs show stereo-selective acute toxicity in cancer cells (FIG. 1). […] (B) Structure of portimine related analogs: phenyl-portimine A (Ph-PA, 36) and epi-portimine A (ePA, 38). […]

Another test relates to LN229. In words: Broad cell line profiling, LN229. The format is cell-based. The following applies: Homo sapiens, LN-229; LN229, Glioblastoma; read-out: PA IC50. The text has this:
• A panel of human and mouse cancer cell types used to assess the breadth of PA activity, including multiple therapy resistant metastatic mesenchymal tumor cell lines and primary glioblastoma patient-derived metastatic stem/tumor initiating cell populations.

The IC50 is the concentration that gives 50% inhibition. Consider `C=CC1=C[C@@H]2[C@@H]3O[C@]4(CC[C@H](O4)C(C)C[C@@H](O)C3=O)CC(O)C3=NCC[C@@]32CC1` (some centres unmarked) [PA, portimine A], for which the Bcl2 levels result with Bcl2 is “does not affect”. Further, the IC50 with LN229 is 1.1 nM.
